How the values were obtained:
Type in all cases: cell-based, human
[1] = test system: AP1-luciferase reporter; assay: Primary phenotypic screen: PMA-mediated AP1-driven luciferase reporter in transfected U2oS cells; details: U2oS cells co-transfected with Phylomer plasmid, PMA 100 nM, read 24 hours later
Procedure: The mini-library of 3120 individual transfection-ready plasmids was used in a microtitre plate-based transfection assay system (ie, and array-based format) in the U2oS cell line, and the effects of the Phyomers expressed from this mini-library were assessed upon PMA-mediated AP1-driven luciferase reporter expression. The previously identified Phylomer PYC36 ([…] SEQ ID NO: 5)—found by reverse target-based yeast 2-hybrid screening against c-Jun bait, and known to affect AP1-dependent transcription (Mead et al., 2010 J. Neurochem, 112: 258-270)—was used as positive control.
Briefly, in triplicate plates, 1×10^5 U2oS cells were plated overnight and co-transfected with 100 ng of both AP1-luciferase reporter (Stratagene) and either an individual Phylomer construct from the mini-libary, or positive control (pcDNA3.1/PYC36) or vector control (pcDNA3.1/nV5-DEST-GusB). PMA (100 nM) was used to induce AP1-dependent luciferase expression 6 hours post-transfection, and luciferase activity was measured 24 hours later (SteadlyGlo, Promega).

[2] = test system: Sulfiredoxin (Srxn1) promoter; assay: Srxn1-luciferase reporter assay (PMA-dependent activation); details: U2oS cells, normalised to Renilla, n=3, p<0.05
Procedure: From this primary screen, we concentrated on the PYC36-like, AP1-inhibitory Phylomers, and selected 14 initial hits. Of these, 7 (TABLE 2 and FIG. 8) were confirmed to inhibit AP1-luciferase activity in a secondary reporter assay normalised to Renilla luciferase expression (FIG. 2). Briefly, Phylomer DNA of the primary hits was re-prepared from the original clones selected for the mini-library (Endo-Free Maxi-Prep, Qiagen), and 5×10^5 U2oS cells were co-transfected with 800 ng DNA comprising AP1-luciferase or Srxn1-luciferase (Papadia et al., 2008) (Firefly), pRL-TK (Renilla) and Phylomer plasmid. Reporter activity/inhibition was calculated by normalizing Firefly activity to Renilla.
As an additional confirmatory experiment, we asked whether these 6 Phylomers specifically regulated expression of a known AP1 target gene by testing their effect on the Sulfiredoxin (Srxn1) promoter, recently established as an AP1-dependent component of the anti-oxidant response mechanism (Papadia et al., 2008). Of the 6 Phylomers tested, 3 inhibited PMA-dependent activation of this promoter: 6G8, 25C3 and 48E6 (FIG. 3a). Importantly, these Phylomers had no effect upon PMA-induced transcription from a control Srxn1 promoter in which the AP1 response elements had been ablated by mutation (FIG. 3b), confirming that their effect on the Srxn1 promoter is AP1-specific.

[3] = test system: Srxn1 promoter containing mutated AP1 response elements; assay: Control Srxn1 promoter reporter with mutated AP1 response elements; details: n=3, p>0.05
Procedure: From this primary screen, we concentrated on the PYC36-like, AP1-inhibitory Phylomers, and selected 14 initial hits. […] Reporter activity/inhibition was calculated by normalizing Firefly activity to Renilla.

| Substance | AP1-dependent luciferase activity (transcription) [1] | PMA-dependent activation of the Srxn1 promoter (Srxn1-luciferase activity) [2] | PMA-induced transcription from control Srxn1 promoter with AP1 response elements ablated by mutation [3] |
| --- | --- | --- | --- |
| PYC36: previously identified Phylomer GLQGRRRQGYQSIKP (SEQ ID NO: 5), positive control known to affect AP1-dependent transcription (Protein fragment of unknown organism) [reference compound] | inhibited transcription | significant inhibition | – |
| 48E6: AP1-inhibitory Phylomer HSDRTADI (SEQ ID NO: 18) (Protein fragment of unknown organism) [Phylomer 48E6] | – | inhibited | no effect |
| 6G8: AP1-inhibitory Phylomer RAEKCGKLF (SEQ ID NO: 10) (Protein fragment of unknown organism) [Phylomer 6G8] | – | inhibited | no effect |

Source: US20190204338A1, “Methods for the Characterisation of Interaction Sites on Target Proteins” (Phylogica Limited, priority 2012, published 2019)
